Test results published in ChEMBL document CHEMBL5726990, “Thiazolidinones as cellular anandamide uptake inhibitors and their use in the treatment of psychiatric or neurological disorders and inflammation, in particular neuroinflammation” (2019).

Assay: [3H]-AEA Cellular Uptake: Screening for AEA cellular uptake inhibition was performed in a semi-automated procedure: Pipetting and washing steps were performed by a Biomek3000 laboratory workstation. First, required amounts of U937 cells were centrifuged at 100×g for 5 min and resuspended in RPMI (37° C.) to a final concentration of 2×10^6 cells/mL. Then, 250 μL of cell suspension (0.5×10^6 cells per sample) were transferred into AquaSil™ silanized glass vials (Chromacol 1.1-MTV) in 96-well format. After addition of 5 μL vehicle (DMSO) or compounds the cells were incubated at 37° C. for 15 min. As positive controls OMDM-2 and UCM707 were used at 10 μM in each run. The ETI-T compounds were measured at up to 7 concentrations in triplicates from 100 pM-100 μM. After pre-incubation, a mixture of 0.5 nM[ethanolamine-1-3H]-AEA, (60 Ci/mmol) and 99.5 nM of cold AEA (final 100 nM) was added and samples were incubated at 37° C. for another 15 min. The reaction was stopped by rapid filtration over UniFilter-96 GF/C filters (PerkinElmer) pre-soaked with PBS 0.25% BSA. Cells were washed three times with 100 μL ice-cold PBS buffer containing 1% fatty acid free BSA. After drying, 45 μL MicroScint 20 scintillation cocktail (PerkinElmer, Waltham, Mass., US) was added to the wells and the plate was sealed. Radioactivity was measured by liquid scintillation counting on a PerkinElmer Wallac Trilux MicroBeta 1450 during 2 min. Non-specific binding of [3H]AEA (100 nM) to the glass vials was never higher than 10%. IC50 values were calculated by GraphPad® by non-linear regression using the built-in log(inhibitor) vs. response-variable slope (four parameters) function.
Details: U-937

Row | IC50 [µM] | SMILES
1 | 0.145 | CC/N=C1\S/C(=C\c2ccc(O)c(OCC)c2)C(=O)N1CC
2 | 0.434 | O=C1/C(=C/c2ccc(O)cc2)S/C(=N\c2ccccc2)N1OC1=CC=CC1
3 | 0.355 | CCCN1C(=O)/C(=C\c2ccc(C(C)C)cc2)S/C1=N\c1ccccc1
